US8247557B2, “IAP inhibitors” (Genentech, Inc., priority 2005, dated 2012)

Biological target: T1, MLXBIR3SG (Homo sapiens, UniProt Q96CA5, S150G)
T1 construct: His6 tag (MGSSHHHHHH, followed by linker with LVPRGS thrombin site) (N)
T1 sequence (Q96CA5 with tags, fused parts or gaps S150G): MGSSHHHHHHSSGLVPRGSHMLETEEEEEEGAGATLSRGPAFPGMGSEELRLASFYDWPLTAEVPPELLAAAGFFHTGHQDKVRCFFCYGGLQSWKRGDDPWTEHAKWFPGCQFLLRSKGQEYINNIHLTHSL
Assay: Fluorescence Polarization Peptide Binding Assay (competition with AVP-diPhe-FAM probe)
Settings: MLXBIR3SG at 30 nM, 5 nM AVP-diPhe-FAM probe, Ki determined from IC50 values, unit inferred
Method: In the following experiments was used a chimeric BIR domain referred to as MLXBIR3SG in which 11 of 110 residues correspond to those found in XIAP-BIR3, while the remainder correspond to ML-IAP-BIR. […] The improved caspase-9 inhibition of the chimeric BIR domain MLXBIR3SG has been correlated with increased inhibition of doxorubicin-induced apoptosis when transfected into MCF7 cells.
Polarization experiments were performed on an Analyst HT 96-384 (Molecular Devices Corp.) according to the procedure of Keating, S. M., Marsters, J, Beresini, M., Ladner, C., Zioncheck, K., Clark, K., Arellano, F., and Bodary., S. (2000) in Proceedings of SPIE: In Vitro Diagnostic Instrumentation (Cohn, G. E., Ed.) pp 128-137, Bellingham, Wash. Samples for fluorescence polarization affinity measurements were prepared by addition of 1:2 serial dilutions starting at a final concentration of 5 μM of MLXBIR3SG in polarization buffer (50 mM Tris [pH 7.2], 120 mM NaCl, 1% bovine globulins 5 mM DTT and 0.05% octylglucoside) to 5-carboxyflourescein-conjugated AVPdi-Phe-NH2 (AVP-diPhe-FAM) at 5 nM final concentration.
The reactions were read after an incubation time of 10 minutes at room temperature with standard cut-off filters for the fluorescein fluorophore (λex=485 nm; λem=530 nm) in 96-well black HE96 plates (Molecular Devices Corp.). Fluorescence values were plotted as a function of the protein concentration, and the IC50s were obtained by fitting the data to a 4-parameter equation using Kaleidograph software (Synergy software, Reading, Pa.). Competition experiments were performed by addition of the MLXBIR3SG at 30 nM to wells containing 5 nM of the AVP-diPhe-FAM probe as well as 1:3 serial dilutions of antagonist compounds starting at a concentration of 300 μM in the polarization buffer. Samples were read after a 10-minute incubation. Fluorescence polarization values were plotted as a function of the antagonist concentration, and the IC50 values were obtained by fitting the data to a 4-parameter equation using Kaleidograph software (Synergy software, Reading, Pa.). Inhibition constants (Ki) for the antagonists were determined from the IC50 values.

| Ki [µM] | Compound |
| --- | --- |
| 7.87 | C[C@@H](NCCO)C(=O)N[C@H](C(=O)N1CCC[C@H]1c1nc2c(-c3ccccc3)nccc2s1)C1CCCCC1 [compound 48] |
| 0.0556 | C[C@H](NCCO)C(=O)N[C@H](C(=O)N1CCC[C@H]1c1nc2c(-c3ccccc3)nccc2s1)c1ccccc1 [compound 54] |
| 0.0338 | CN[C@@H](C)C(=O)N[C@H](C(=O)N1CCC[C@H]1c1nc2c(-c3ccccc3)ncnc2s1)C1CCN(C(=O)COC)CC1 [compound 56] |
| 0.145 | C[C@H](NCCO)C(=O)N[C@H](C(=O)N1CCC[C@H]1c1nc2c(-c3ccccc3)ccnc2s1)C1CCCCC1 [compound 60] |
